# Measured values published in US6881553B2 (priority 1999, dated 2005).
# Values joined by “and” are separate entries in the source; they are usually repeats but may differ in a detail not shown here. Identical values can stand only once. “Also recorded” adds a separate entry of the source. Like-named read-outs stand apart in the source and are kept apart here.
# What was measured:
# [1] = tested on: L. pneumophila Philadelphia 1; type: cell-based, Legionella pneumophila; details: disks 2.5 mg or 1.0 mg, BCYE plates, four days
# L. pneumophila F4b [2] = type: cell-based, Legionella pneumophila; details: disks 2.5 mg or 1.0 mg, BCYE plates, four days
# [3] = tested on: L. pneumophila Philadelphia 1; assay: microbe, parasite or virus in culture; type: cell-based, Legionella pneumophila; details: for inhibition of 14C-acetate incorporation: 0.5 mM
# L. pneumophila lysates = type: biochemical, Legionella pneumophila; details: for inhibition of 14C-acetate incorporation, lysates compared with whole cells: 0.4 mM or 2.0 mM
# [4] = tested on: L. pneumophila Philadelphia 1; assay: microbe, parasite or virus in culture; type: cell-based, Legionella pneumophila; details: for MIC90: Legionella pneumophila, 48 h, read-out: MIC which inhibited 90% of L. pneumophila growth (MIC90)
# [5] = tested on: L. pneumophila in PMA-differentiated HL-60 cells; type: cell-based, Legionella pneumophila
# [6] = tested on: L. pneumophila in human monocyte-derived macrophages; type: cell-based, Legionella pneumophila
# [7] = Solubility observations in media; type: physicochemical; details: aqueous medium
# Legionella sp. strains = type: cell-based
# bacterial species = type: cell-based
# Nocardia sp. = type: cell-based
# atypical mycobacteria = assay: Zone of inhibition assay; type: cell-based; details: standard laboratory media
# Pseudomonas aeruginosa = type: cell-based
# M. tuberculosis strains [8] = assay: M. tuberculosis susceptibility assay on Middlebrook agar; type: cell-based, Mycobacterium tuberculosis; details: 27 strains, OADC Middlebrook agar, three weeks 37° C.
# M. tuberculosis strains [9] = assay: M. tuberculosis 7H9 broth assay; type: cell-based, Mycobacterium tuberculosis; details: 21 days, turbidity
# L. pneumophila [10] = type: cell-based, Legionella pneumophila; details: GFZ 30 μg/ml, three days on CYE agar
# L. pneumophila F4b [11] = assay: microbe, parasite or virus in culture; type: cell-based; details: Legionella pneumophila, read-out: concentration giving 50% inhibition of 14C-acetate incorporation
# [12] = tested on: Listeria monocytogenes in mouse J774 macrophage-like cells; details: GFZ in combination with norfloxacin; cited from earlier work
# J774 cells = details: treatment of J774 cells with GFZ; cited from earlier work
# [13] = mouse, in vivo; cited from earlier work
# Saccharomyces cerevisiae = assay: Zone of inhibition assay on SAB medium
# Candida albicans = assay: Zone of inhibition assay on SAB medium
# L. pneumophila FabX = type: biochemical, Legionella pneumophila; details: dodecenoyl-CoA substrate, 100 μM NADH, pH 7.4
# L. pneumophila FabT = type: biochemical, Legionella pneumophila; details: dodecenoyl-CoA substrate, 100 μM NADH, pH 7.4
# M. tuberculosis InhA = M. tuberculosis InhA (Mycobacterium tuberculosis, UniProt P9WGR1); details: pH 7.4
# M. tuberculosis InhA, sequence (P9WGR1 whole entry, looked up): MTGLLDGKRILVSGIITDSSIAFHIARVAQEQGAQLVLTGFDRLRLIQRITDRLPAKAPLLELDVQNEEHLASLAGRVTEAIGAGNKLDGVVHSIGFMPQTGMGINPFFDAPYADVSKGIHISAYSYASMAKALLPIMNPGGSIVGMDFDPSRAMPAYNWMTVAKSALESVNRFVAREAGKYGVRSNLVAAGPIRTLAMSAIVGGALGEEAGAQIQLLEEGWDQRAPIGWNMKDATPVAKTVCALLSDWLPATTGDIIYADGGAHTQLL
# [14] = molecular target: L. pneumophila FabX enoyl reductase (His-tagged FabX); type: biochemical; details: competitive with regard to DCA (dodecenoyl-CoA) substrate; 100 μM NADH, 100 mM NaPO4 pH 7.4; value (+/- spread)
# [15] = molecular target: L. pneumophila FabT enoyl reductase (His-tagged FabT) (Legionella pneumophila, UniProt Q5ZUE4); assay: biochemical
# L. pneumophila FabT enoyl reductase (His-tagged FabT), sequence (Q5ZUE4 1-268): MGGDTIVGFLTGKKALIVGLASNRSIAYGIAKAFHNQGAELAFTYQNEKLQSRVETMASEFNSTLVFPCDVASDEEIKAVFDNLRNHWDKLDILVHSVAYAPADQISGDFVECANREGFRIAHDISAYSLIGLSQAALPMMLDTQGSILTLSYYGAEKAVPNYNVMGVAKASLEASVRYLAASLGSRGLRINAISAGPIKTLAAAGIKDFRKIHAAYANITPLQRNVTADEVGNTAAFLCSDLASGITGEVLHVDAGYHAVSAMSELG
# [16] = molecular target: M. tuberculosis InhA enoyl reductase (Mycobacterium tuberculosis, UniProt P9WGR1); assay: biochemical
# M. tuberculosis InhA enoyl reductase, sequence (P9WGR1 whole entry, looked up): as the sequence (P9WGR1 whole entry, looked up) above
# L. pneumophila [17] = details: cited from earlier work
# L. pneumophila [18] = details: cited from earlier work; remark: listed apart in the source
compound,measurement,setting,value
O=C(O)c1ccccc1O [2-hydroxybenzoic acid],antibacterial activity by zone of inhibition,[1],more sensitive to 2-hydroxybenzoic acid (salicylic acid) than GFZ
same,antibacterial activity by zone of inhibition,L. pneumophila F4b [2],more sensitive to 2-hydroxybenzoic acid (salicylic acid) than GFZ
same,inhibition of 14C-acetate incorporation,[3],some efficacy
"O=C(O)CCc1ccc(O)c(O)c1 [3,4-HPA, 3,4-dihydroxyphenyl propionic acid]",antibacterial activity by zone of inhibition,[1],equally inhibitory
same,antibacterial activity by zone of inhibition,L. pneumophila F4b [2],equally inhibitory
"O=C(O)CCc1ccc(O)cc1 [Analog 4-HPA, 4-hydroxyphenylpropionic acid]",antibacterial activity by zone of inhibition,[1],equally inhibitory
same,antibacterial activity by zone of inhibition,L. pneumophila F4b [2],equally inhibitory
"C/C=C/C/C=C/CCC(=O)[C@H]1O[C@H]1C(N)=O [Cerulenin, cerulenin]",inhibition of 14C-acetate incorporation relative to GFZ at 100 μg/ml,[3]; 100 μg/ml (0.45 mM),slightly better inhibitor
same,"inhibition of 14C-acetate incorporation, lysates compared with whole cells",L. pneumophila lysates,less effective inhibitor
"Cc1ccc(C)c(OCCCC(C)(C)C(=O)O)c1 [GFZ, gemfibrozil]",bacteriostatic or bacteriocidal effect,"[4]; 10-200 μg/ml, aliquots of MIC cultures plated on CYE",bacteriostatic
same,MIC90,[4],10 µg/mL
same,L. pneumophila intracellular growth,[5]; GFZ 0.4 mM (100 μg/ml),inhibition of L. pneumophila intracellular growth
same,concentration required to inhibit intracellular growth within macrophages,[5]; macrophages,100 µg/mL
same,time after infection at which inhibition of bacterial growth was seen,"[5]; single-round growth assay with gentamicin, GFZ 0.4 mM (100 μg/ml)",≤ 8 h
same,intracellular growth of L. pneumophila in human macrophages,[6]; 0.4 mM (100 μg/ml),inhibited the intracellular growth
same,intracellular growth of L. pneumophila in human macrophages,[6]; 0.6 mM compared with 0.4 mM,no further reduction in L. pneumophila colonies
same,solubility in relation to pH,[7],insoluble at an acid pH; also recorded: decreases as pH decreases
same,sensitivity of Legionella sp. strains (zone of inhibition),Legionella sp. strains,All 39 Legionella sp. strains were sensitive
same,sensitivity of nonpathogenic bacterial strains,bacterial species,four of the eight strains tested demonstrated sensitivity
same,share of bacterial species tested that demonstrated susceptibility,bacterial species,33%
same,zone of inhibition,Nocardia sp.,40-60 mm
same,susceptibility,atypical mycobacteria,resistant
same,growth inhibition,Pseudomonas aeruginosa,did not inhibit the growth
same,concentration that completely inhibited growth of all M. tuberculosis strains,M. tuberculosis strains [8],100 to 200 µg/mL
same,growth of M. tuberculosis strains in 7H9 broth,M. tuberculosis strains [9],inhibits the growth
same,change in amount of 3-HB-propyl ester,L. pneumophila [10],fifty-fold increase
same,IC50,"[3]; Legionella pneumophila, 0.25 h, read-out: concentration giving fifty percent inhibition of 14C-acetate incorporation",25 µg/mL
same,IC50,"[3]; Legionella pneumophila, 1 h, read-out: concentration giving 50% inhibition of 14C-acetate incorporation",10 µg/mL and 40 µM
same,IC50,"[3]; Legionella pneumophila, read-out: concentration giving 50% inhibition of 14C-acetate incorporation",100 µM and 25 µg/mL
same,inhibition at 400 µM,"[3]; Legionella pneumophila, read-out: inhibition of 14C-acetate incorporation into TCA precipitable material in whole cells",> 90%
same,lowest concentration that inhibited 14C-acetate incorporation,[3]; within 15 minutes,10 µg/mL
same,IC50,L. pneumophila F4b [11],100 µg/mL and 400 µM
same,inhibition of 14C-acetate incorporation into TCA precipitable material in a lysate,L. pneumophila lysates; 0.4 mM,15%
same,"inhibition of 14C-acetate incorporation, lysates compared with whole cells",L. pneumophila lysates,not as effective an inhibitor in these lysates as it was in whole cells
same,"inhibition of 14C-acetate incorporation in lysate, comparison between inhibitors",L. pneumophila lysates; 2 mM,not as potent as cerulenin in lysates
same,viability of uninfected HL-60 cells,HL-60 cells,did not affect the viability
same,protection of infected HL-60 cells from L. pneumophila cytolytic effects,"HL-60 cells; 100 μg/ml, infection multiplicity of 0.1 bacteria/cell, 5 days",protected infected HL-60 cells
same,reduction of the norfloxacin concentration required to block intracellular growth,[12],fourfold
same,increase of intracellular concentration of norfloxacin,J774 cells,fourfold
same,LD50,[13],250 mg/20 gm mouse per day
same,susceptibility,Saccharomyces cerevisiae; SAB medium buffered to pH 7,susceptible
same,zone of inhibition,Saccharomyces cerevisiae; unbuffered medium,No zone of inhibition
same,susceptibility,Candida albicans; SAB medium buffered to pH 7,susceptible
same,zone of inhibition,Candida albicans; unbuffered medium,No zone of inhibition
Cc1ccc(C)c(OCCCC(C)(C)C(=O)SCCNC(=O)CCNC(=O)[C@H](O)C(C)(C)COP(=O)(O)OP(=O)(O)OC[C@H]2O[C@@H](n3cnc4c(N)ncnc43)[C@H](O)[C@@H]2OP(=O)(O)O)c1 [GFZ-CoA],mode of inhibition of enoyl reductase activity,L. pneumophila FabX,competitive inhibitor
same,mode of inhibition of enoyl reductase activity,L. pneumophila FabT,competitive inhibitor
same,mode of inhibition of enoyl reductase activity,M. tuberculosis InhA,competitive inhibitor
Cc1ccc(C)c(OCCCC(C)(C)C(=O)SCCNC(=O)CCNC(=O)[C@H](O)C(C)(C)COP(=O)(O)OP(=O)(O)OC[C@H]2O[C@@H](n3cnc4c(N)ncnc43)[C@H](O)[C@@H]2OP(=O)(O)O)c1 [GFZ],Ki,[14],122 µM
same,Ki,[15],127 µM
same,Ki,[16],210 µM
"Nc1ccc(C(=O)O)c(O)c1 [P-aminosalicyclic acid, para-aminosalicylate]",inhibition of 14C-acetate incorporation,[3],some efficacy
CC(C)(Oc1ccc(CCNC(=O)c2ccc(Cl)cc2)cc1)C(=O)O [bezafibrate],MIC90,[4],250 µg/mL
CCOC(=O)C(C)(C)Oc1ccc(Cl)cc1 [clofibrate],MIC which inhibited 90% of L. pneumophila growth (MIC90),"[4]; AYE broth, 48 hrs at 37° C.",100 µg/mL
same,effectiveness at inhibiting intracellular growth relative to GFZ,[6],much less effective than GFZ
same,intracellular growth of L. pneumophila in human macrophages,[6]; 1 mM,able to slow L. pneumophila growth
same,inhibition of 14C-acetate incorporation,[3],some efficacy
CC[C@H]1OC(=O)[C@H](C)[C@@H](O[C@H]2C[C@@](C)(OC)[C@@H](O)[C@H](C)O2)[C@H](C)[C@@H](O[C@@H]2O[C@H](C)C[C@H](N(C)C)[C@H]2O)[C@](C)(O)C[C@@H](C)C(=O)[C@H](C)[C@@H](O)[C@]1(C)O [erythromycin],concentration inhibiting extracellular growth,L. pneumophila [17],0.2 µg/mL
CO[C@H]1/C=C/O[C@@]2(C)Oc3c(C)c(O)c4c(O)c(c(/C=N/N5CCN(C)CC5)c(O)c4c3C2=O)NC(=O)/C(C)=C\C=C\[C@H](C)[C@H](O)[C@@H](C)[C@@H](O)[C@@H](C)[C@H](OC(C)=O)[C@@H]1C [rifampin],concentration inhibiting extracellular growth,L. pneumophila [17],0.002 µg/mL
same,concentration inhibiting intracellular growth,L. pneumophila [18],0.1 µg/mL
